In patent publication US20160206633A1, “dhS1P AND USE OF SAME AS AN ANTICANCER THERAPEUTIC AND IMMUNOMODULATOR” (Penn State Research Foundation, Inc., priority 2013, published 2016):

System: splenic hematopoietic progenitors (Lineage-Sca-1+CD117+)
Test: Isolated splenic hematopoietic progenitors exposed to dhS1P, multicolor flow cytometry
Type: cell-based, athymic nude mice
Details: 5 μM, 24-hour culture
Method: (A) Splenic IMCs (Gr-1+CD11b+, also defined as MDSCs: myeloid-derived suppressor cells) were isolated from MDA-MB-231 tumor-bearing athymic nude mice and exposed to BSA, S1P (5 μM), or dhS1P (5 μM). Following 24-hour culture incubation, cells were labeled with specific antibodies and analyzed by multicolor flow cytometry (red: IMCs; blue: possible B-cells). (B) Splenic IMCs were isolated from MDA-MB-231 tumor-bearing athymic nude mice and cultured (5×10^4 cells/mL) in GEMM-supportive semi-solid media with BSA, S1P (5 μM), or dhS1P (5 μM). GEMM colonies (multipotent myeloid progenitor cells) were visualized and counted after 3 weeks of culture. ANOVA, *p<0.01 compared to no treatment or BSA-treatment, ***p<0.001 compared to S1P-treatment, n≧3. (C) Splenic hematopoietic progenitors (Lineage-Sca-1+CD117+) were isolated from MDA-MB-231 tumor-bearing athymic nude mice and exposed to BSA, S1P (5 μM), or dhS1P (5 μM). Following 24-hour culture incubation, cells were labeled with specific antibodies and analyzed by multicolor flow cytometry.
Splenocytes were harvested from tumor-bearing mice by mechanical disruption in red blood cell lysis buffer. Splenocytes were washed, and resuspended in PBS with Mouse BD Fc Block (1 μg per 1×10^6 splenocytes), and incubated for 15 minutes at 4° C. For IMC isolation, antibodies targeting Gr-1 (FITC) and CD11b (PE-Cy7) were added. […]

CCCCCCCCCCCCCCC[C@@H](O)[C@@H](N)COP(=O)(O)O [dhS1P, dihydrosphingosine-1-phosphate]
CD19+CD45R B220+ cellular population from isolated hematopoietic progenitors: mediated the expansion
